Patent US11820759B2, “Modulators of chemokine receptors” (CHEMOCENTRYX, INC., priority 2015, dated 2023)

Test system: IL-23 induced ear swelling
Experiment: IL-23 induced ear swelling model for psoriasis
Type: in vivo
Conditions: C57B1/6 mice; sub-cutaneous, therapeutic dosing after 3 intradermal injections of IL-23; calipers; FIG. 2
Experimental: An intradermal injection of IL-23 into the ear of mice can cause a swelling of the ear which is CCR6 dependent (Hedrick M. N et. al. J. Clinical Investigation. 2009. 119:2317-2329). C57B1/6 mice were given intradermal injections of IL-23 in the right ear. PBS was given by intradermal injection into the left ear as a control. Compound 1.023 (synthesized in example 6) was dosed by sub-cutaneous route. The compound was dosed in a therapeutic manner, after 3 intradermal injections of IL-23 and upon initiation of moderate ear swelling. The degree of swelling was measured using calipers.

COc1ccc(C(=O)O)c(N2Cc3c(Cl)ccc(Nc4c(N[C@@H](c5cc(C)c(C)o5)C(C)(C)C)c(=O)c4=O)c3C2=O)c1 [Compound 1.023, 2-[4-chloro-7-[[2-[[(1R)-1-(4,5-dimethyl-2-furyl)-2,2-dimethyl-propyl]amino]-3,4-dioxo-cyclobuten-1-yl]amino]-1-oxo-isoindolin-2-yl]-4-methoxy-benzoic acid]
IL-23 induced ear swelling: completely inhibit IL-23 induced ear swelling
